Test results taken from patent publication US11319303B2 (WIGEN BIOMEDICINE TECHNOLOGY (SHANGHAI) CO., LTD., priority 2017, dated 2022).
Structures can show the parent of a compound that is named as a salt.

Target: LC3B (Homo sapiens, UniProt Q9GZQ8)
Experiment: Fluorescence Polarization (FP) Assay: displacement of FITC-labeled peptide from GST-LC3B
Assay type: binding
Conditions: Fluorescence Polarization assay; GST-LC3B 180 nM, FITC-labeled peptide 18 nM, 25° C.; read-out: IC50
Description: The compounds of the present invention for regulating the autophagy-related protein LC3B were tested by Fluorescence Polarization (FP) Assay.
Fluorescence Polarization (FP) Assay Test

| SMILES | IC50 [µM] |
| --- | --- |
| O=C1Oc2ccc(-c3ccccc3)cc2C(=O)C1=CNCCN1CCN(CCO)CC1 [Compound 156, 3-(((2-(4-(2-hydroxyethyl)piperazin-1-yl)ethyl)amino)methylene)-6-phenylchromane-2,4-dione] | 3 to 15 |
| CC(O)C(NC=C1C(=O)CC(c2ccccc2)CC1=O)C(=O)O (stereo not shown) [Compound 158, 2-(((2,6-dioxo-4-phenylcyclo-hexylidene)methyl)amino)-3-hydroxybutanoic acid] | 100 to 1000 |
| CC(NC=C1C(=O)CC(c2ccccc2)CC1=O)c1ccccn1 (stereo not shown) [Compound 160, 5-phenyl-2-(((1-(pyridin-2-yl)ethyl)amino)methylene) cyclohexane-1,3-dione] | 15 to 100 |
| O=C1CC(c2ccccc2)CC(=O)C1=CNCC1CCNCC1 (stereo not shown) [Compound 161, 5-phenyl-2-(((piperidin-4-ylmethyl)amino)methylene) cyclohexane-1,3-dione hydrochloride] | 100 to 1000 |
| CCOC(=O)[C@H](C)NC=C1C(=O)CC(c2ccccc2)CC1=O (stereo partly drawn) [Compound 162, ethyl ((2,6-dioxo-4-phenylcyclo-hexylidene)methyl)-L-alaninate] | 15 to 100 |
| O=C1CC(c2ccccc2)CC(=O)C1=CNC[C@@H](O)[C@H](O)[C@@H](O)[C@@H](O)CO (stereo partly drawn) [Compound 163, 2-((((2R,3S,4S,5S)-2,3,4,5,6-pentahydroxyhexyl)amino)methylene)-5-phenylcyclohexane-1,3-dione] | 100 to 1000 |
| CNCCNC=C1C(=O)CC(c2ccccc2)CC1=O (stereo not shown) [Compound 164, 2-(((2-(methylamino)ethyl)amino)methylene)-5-phenylcyclohexane-1,3-dione hydrochloride] | 3 to 15 |
| CCOC(=O)C(CS)NC=C1C(=O)CC(c2ccccc2)CC1=O (stereo not shown) [Compound 169, ethyl ((2,6-dioxo-4-phenylcyclo-hexylidene)methyl) cysteinate] | 3 to 15 |
| CN(C)CCCCNC=C1C(=O)CC(c2ccccc2)CC1=O (stereo not shown) [Compound 170, 2-(((4-(dimethylamino)butyl)amino)methylene)-5-phenylcyclohexane-1,3-dione] | 3 to 15 |
| CCN1CCC[C@H]1CNC=C1C(=O)CC(c2ccccc2)CC1=O (stereo partly drawn) [Compound 171, 2-(((((S)-1-ethylpyrrolidin-2-yl)methyl)amino)methylene)-5-phenylcyclohexane-1,3-dione] | 3 to 15 |
| NC1CC(NC=C2C(=O)CC(c3ccccc3)CC2=O)C1 (stereo not shown) [Compound 173, 2-(((3-aminocyclobutyl)amino)methylene)-5-phenylcyclohexane-1,3-dione hydrochloride] | 15 to 100 |
| NCCNC=C1C(=O)CC(c2ccccc2)CC1=O (stereo not shown) [Compound 175, 2-(((2-aminoethyl)amino)methylene)-5-phenylcyclo-hexane-1,3-dione hydrochloride] | 3 to 15 |
| CC(=O)NCCNC=C1C(=O)CC(c2ccccc2)CC1=O (stereo not shown) [Compound 176, N-(2-(((2,6-dioxo-4-phenylcyclo-hexylidene)methyl)amino)ethyl) acetamide] | 100 to 1000 |
| NCCOC(=O)[C@H](Cc1ccccc1)NC=C1C(=O)CC(c2ccccc2)CC1=O (stereo partly drawn) [Compound 178, 2-aminoethyl ((2,6-dioxo-4-phenylcyclo-hexylidene)methyl)-L-phenylalaninate hydrochloride] | 15 to 100 |
| CONC=C1C(=O)CC(c2ccccc2)CC1=O (stereo not shown) [Compound 180, 2-((methoxyamino)methylene)-5-phenylcyclo-hexane-1,3-dione] | 100 to 1000 |
| CC1(C)CC(=O)C(=CNCCN2CCN(CCO)CC2)C(=O)C1 [Compound 182, 2-(((2-(4-(2-hydroxyethyl)piperazin-1-yl)ethyl)amino)methylene)-5,5-dimethyl-cyclohexane-1,3-dione] | 100 to 1000 |
| O=C1/C(=C/NCCN2CCN(CCO)CC2)Oc2ccccc21 [Compound 183, 2-(((2-(4-(2-hydroxyethyl)piperazin-1-yl)ethyl)amino)methylene) benzofuran-3(2H)-one] | 100 to 1000 |
| Cc1cccc2[nH]cc(C3CC(=O)C(=CNCCN4CCN(CCO)CC4)C(=O)C3)c12 (stereo not shown) [Compound 184, 2-(((2-(4-(2-hydroxyethyl)piperazin-1-yl)ethyl)amino)methylene)-5-(4-methyl-1H-indol-3-yl)cyclohexane-1,3-dione] | 100 to 1000 |
| O=C1CC(c2cccc3[nH]cc(C4CC4)c23)CC(=O)C1=CNCCN1CCN(CCO)CC1 (stereo not shown) [Compound 185, 5-(3-cyclopropyl-1H-indol-4-yl)-2-(((2-(4-(2-hydroxyethyl)piperazin-1-yl)ethyl)amino)methylene) cyclohexane-1,3-dione] | < 3 |
| COc1ccc2[nH]cc(C3CC(=O)C(=CNCCN4CCN(CCO)CC4)C(=O)C3)c2c1 (stereo not shown) [Compound 186, 2-(((2-(4-(2-hydroxyethyl)piperazin-1-yl)ethyl)amino)methylene)-5-(5-methoxy-1H-indol-3-yl)cyclohexane-1,3-dione] | 3 to 15 |
| O=C1CC(c2ccccc2-c2ccccc2)CC(=O)C1=CNCCN1CCN(CCO)CC1 (stereo not shown) [Compound 187, 5-([1,1′-biphenyl]-2-yl)-2-(((2-(4-(2-hydroxyethyl)piperazin-1-yl)ethyl)amino)methylene) cyclohexane-1,3-dione] | < 3 |
| O=C1CC(c2ccccc2-c2ccncc2)CC(=O)C1=CNCCN1CCN(CCO)CC1 (stereo not shown) [Compound 188, 2-(((2-(4-(2-hydroxyethyl)piperazin-1-yl)ethyl)amino)methylene)-5-(2-(pyridin-4-yl)phenyl) cyclohexane-1,3-dione] | 3 to 15 |
| O=C1CC(c2ccccc2C2CC2)CC(=O)C1=CNCCN1CCN(CCO)CC1 (stereo not shown) [Compound 189, 5-(2-cyclopropylphenyl)-2-(((2-(4-(2-hydroxyethyl)piperazin-1-yl)ethyl)amino)methylene) cyclohexane-1,3-dione] | < 3 |
| O=C1CC(c2ccccc2)C(C(=O)N2CCOCC2)C(=O)C1=CNCCN1CCN(CCO)CC1 (stereo not shown) [Compound 190, 2-(((2-(4-(2-hydroxyethyl)piperazin-1-yl)ethyl)amino)methylene)-4-(morpholine-4-carbonyl)-5-phenylcyclo-hexane-1,3-dione] | 15 to 100 |
| CCOC(=O)C1C(=O)/C(=C\NCCN2CCN(CCO)CC2)C(=O)CC1c1ccccc1Br (stereo not shown) [Compound 191, ethyl-6-(2-bromophenyl)-3-(((2-(4-(2-hydroxyethyl)piperazin-1-yl)ethyl)amino)methylene)-2,4-dioxocyclohexane-1-carboxylate] | < 3 |
| O=C1Nc2ccc(Cl)cc2C(=O)/C1=C/NCCN1CCN(CCO)CC1 [Compound 192, 6-chloro-3-(((2-(4-(2-hydroxyethyl)piperazin-1-yl)ethyl)amino)methylene) quinoline-2,4 (1H,3H)-dione] | 3 to 15 |
| CN1C(=O)/C(=C\NCCN2CCN(CCO)CC2)C(=O)c2ccccc21 [Compound 193, 3-(((2-(4-(2-hydroxyethyl)piperazin-1-yl)ethyl)amino)methylene)-1-methylquinoline-2,4(1H,3H)-dione] | 15 to 100 |

Continued, values first:

| IC50 [µM] | SMILES |
| --- | --- |
| 15 to 100 | COc1cccc2c1NC(=O)/C(=C\NCCN1CCN(CCO)CC1)C2=O [Compound 194, 3-(((2-(4-(2-hydroxyethyl)piperazin-1-yl)ethyl)amino)methylene)-8-methoxyquinoline-2,4(1H,3H)-dione] |
| 3 to 15 | O=C1Nc2c(F)cccc2C(=O)/C1=C/NCCN1CCN(CCO)CC1 [Compound 195, 8-fluoro-3-(((2-(4-(2-hydroxyethyl)piperazin-1-yl)ethyl)amino)methylene) quinoline-2,4 (1H,3H)-dione] |
| 3 to 15 | COc1ccc2c(c1)C(=O)/C(=C/NCCN1CCN(CCO)CC1)C(=O)N2 [Compound 196, 3-(((2-(4-(2-hydroxyethyl)piperazin-1-yl)ethyl)amino)methylene)-6-methoxyquinoline-2,4(1H,3H)-dione] |
| < 3 | O=C1Nc2c(cccc2C(F)(F)F)C(=O)/C1=C/NCCN1CCN(CCO)CC1 [Compound 197, 3-(((2-(4-(2-hydroxyethyl)piperazin-1-yl)ethyl)amino)methylene)-8-(trifluoromethyl) quinoline-2,4(1H,3H)-dione] |
| 100 to 1000 | O=C1NC(=O)/C(=C\NCCN2CCN(CCO)CC2)S1 [Compound 200, 5-(((2-(4-(2-hydroxyethyl)piperazin-1-yl)ethyl)amino)methylene)thiazolidine-2,4-dione] |
| 100 to 1000 | CN(C)C=C1C(=O)C(C)(c2ccccc2)C1=O (stereo not shown) [Compound 201, 4-((dimethylamino)methylene)-2-methyl-2-phenylcyclobutane-1,3-dione] |
| 15 to 100 | CN(C)CCCNC=C1C(=O)CC(c2ccccc2)CC1=O (stereo not shown) [Compound 202, 2-(((3-(dimethylamino)propyl)amino)methylene)-5-phenylcyclohexane-1,3-dione] |
| 3 to 15 | Cc1cccc(CNC=C2C(=O)CC(c3ccccc3)CC2=O)n1 (stereo not shown) [Compound 203, 2-((((6-methylpyridin-2-yl)methyl)amino)methylene)-5-phenylcyclohexane-1,3-dione] |
| 100 to 1000 | O=C1CC(c2ccccc2)CC(=O)C1=CNCc1ccc(Cl)cn1 (stereo not shown) [Compound 204, 2-((((5-chloropyridin-2-yl)methyl)amino)methylene)-5-phenylcyclohexane-1,3-dione] |
| 100 to 1000 | O=C1CC(c2ccccc2)CC(=O)C1=CNCc1cc2ccccc2[nH]1 (stereo not shown) [Compound 205, 2-((((1H-indol-2-yl)methyl)amino)methylene)-5-phenylcyclohexane-1,3-dione] |
| 15 to 100 | CSCCNC=C1C(=O)CC(c2ccccc2)CC1=O (stereo not shown) [Compound 206, 2-(((2-(methylthio)ethyl)amino)methylene)-5-phenylcyclohexane-1,3-dione] |
| 15 to 100 | C[S+]([O-])CCNC=C1C(=O)CC(c2ccccc2)CC1=O (stereo not shown) [Compound 207, 2-(((2-(methylsulfinyl)ethyl)amino)methylene)-5-phenylcyclohexane-1,3-dione] |
| 15 to 100 | CS(=O)(=O)CCNC=C1C(=O)CC(c2ccccc2)CC1=O (stereo not shown) [Compound 208, 2-(((2-(methylsulfonyl)ethyl)amino)methylene)-5-phenylcyclohexane-1,3-dione] |
